Test results as given in ChEMBL document CHEMBL1201862, “PubChem BioAssay data set” (2004).
The source made the active and inactive calls.

Experiments:
[1] = viability loss in Vero cells – cytotoxicity control for Vif-APOBEC3G degradation inhibitor project, dose response (AID 1117358); format: functional; conditions: Vero
cells = conditions: HEK293;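 also: cells exposed to compound for 48 hours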
[2] = OV-90 cell viability loss – plate reader, dry powder, SA8, PAX8 inhibitor project, dose response (AID 743149); format: functional, cell-based
[3] = COV434 cell viability loss – plate reader, dry powder, SA7, cytotoxicity control for PAX8 inhibitor project, dose response (AID 743145); format: functional, cell-based
[4] = toxicity toward immortalized ovarian surface epithelium – cell-based, plate reader, dry powder samples, cytotoxicity control for PAX8 inhibitor project, dose response (AID 743045); format: functional
Paired box protein Pax-8 = Paired box protein Pax-8 (Homo sapiens, UniProt Q06710); experiment: PAX8 transcriptional activity inhibition in RMG-I – RMG-I cells, luciferase, cherry-pick, dose response (AID 687027); format: functional, cell-based;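 also: luciferase reporter driven by Pax8 target thyroperoxidase promoter measured by SteadyGlo luminescence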
[5] = PAX8-dependent cell viability loss – plate reader, dry powder, dose response (AID 743049); format: functional, cell-based
HEK293 = experiment: viability loss in HEK293T cells – cell-based, ATP luminescence, cherry-pick samples, cytotoxicity control, dose response (AID 687005); format: functional; conditions: Homo sapiens;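 also: cells exposed to compound for 48 hours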
[6] = HEK293 Cytotoxicity Assay Measured in Cell-Based System Using Plate Reader - 7071-01_Inhibitor_Dose_CherryPick_Activity_Set2.; format: functional
[7] = HIV-1 Vif–A3G interaction blockers – biochemical, TR-FRET, GST-Vif 1-94, biotin-A3G peptide, dose response retest, primary screen (AID 1117319); format: functional;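 also: TR-FRET signal of purified GST-Vif binding a biotinylated A3G peptide; inhibitors lower the FRET signal by blocking Vif and A3G binding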
Saccharomyces cerevisiae = experiment: S. cerevisiae Caspase-1/ASC signal blockers IC50, NALP1 inhibitor project selectivity test (AID 488863); format: functional, organism-based
[8] = molecular target: NACHT, LRR and PYD domains-containing protein 1 (Homo sapiens, UniProt Q9C000); experiment: NALP1 inhibitors in yeast, dose response, luminescent (AID 488860); format: functional
[9] = molecular target: 1-phosphatidylinositol 4,5-bisphosphate phosphodiesterase beta-3 (Homo sapiens, UniProt Q01970); experiment: Fluorescence-based biochemical high throughput dose response assay to identify inhibitors of phospholipase C isozymes (PLC-B3).
[10] = molecular target: 1-phosphatidylinositol 4,5-bisphosphate phosphodiesterase gamma-1 (Homo sapiens, UniProt P19174); experiment: Counterscreen for inhibitors of phospholipase C isozymes (PLC-B3): Fluorescence-based biochemical high throughput dose response assay to identify inhibitors of phospholipase C isozymes (PLC-gamma1).
[11] = optical artefact potency, substrate without enzyme – biochemical, fluorescence intensity, triplicate, artefact control for kallikrein-7 zymogen activator project, dose response (AID 720493)
Kallikrein-7 = Kallikrein-7 (Homo sapiens, UniProt P49862); experiment: Fluorescence Intensity-based biochemical primary high throughput dose response assay to identify activators of kallikrein-7 (K7) zymogen.
[12] = Late stage assay provider results from the probe development effort to identify selective inhibitors of heat shock protein 90 (HSP90): Absorbance-based cell proliferation assay in MCF7 cells.; format: functional
Vero [13] = experiment: cells; format: functional; conditions: Chlorocebus sabaeus
[14] = Late stage assay provider results from the probe development effort to identify selective inhibitors of heat shock protein 90 (HSP90): Absorbance-based cell proliferation assay in SKBR3 cells.; format: functional; conditions: SK-BR-3
[15] = molecular target: T1, Heat shock protein HSP 90-alpha (Homo sapiens, UniProt P07900); experiment: Luminescence-based dose response biochemical high throughput screening assay for inhibitors of the Heat Shock Protein 90 (HSP90). [Related pubchem assays: 1831 (Summary AID.), 1846 (Confirmation screen.), 1789 (Primary screen.)]
[16] = molecular target: Glucose-6-phosphate 1-dehydrogenase (Homo sapiens, UniProt P11413); experiment: inhibition of Homo sapiens G6PD, dose series – biochemical, fluorescence, selectivity assay for P. falciparum G6PD inhibitor project, dose response (AID 504792); format: functional
[17] = viability loss in HeLa cells – cytotoxicity control for MgcRacGAP inhibitor project, dose response (AID 624300); format: functional
Nonstructural protein 1 = Nonstructural protein 1 (Influenza A virus, UniProt Q194T2); format: functional, Influenza A virus (A/California/07/2009(H1N1))
Beta Lactamase = Beta Lactamase (Pseudomonas aeruginosa, UniProt Q932Y6); experiment: BLA reporter interference, concentration series – BLA reporter cells, FRET fluorescence, artefact control for TLR9-MyD88 binding inhibitor project, dose response (AID 588341); format: cell-based;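 also: cell based assay in CHO-K1 cells stably expressing beta-lactamase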
[18] = molecular target: Glutathione-S-transferase (Schistosoma japonicum, UniProt Q26513); experiment: GST-antibody interaction or FRET quenching – biochemical, TR-FRET, artefact control for Vif-APOBEC3G degradation inhibitor project, dose response (AID 1117362); format: functional
Genome polyprotein = Genome polyprotein (dengue virus type 2, UniProt P29990); experiment: flavivirus cap methylation enzyme inhibition – biochemical, confirmation dose response, primary screen (AID 588689); format: functional
[19] = molecular target: T2, Rac GTPase-activating protein 1 (Homo sapiens, UniProt Q9H0H5); experiment: blockers of MgcRacGAP-driven Rac1 GTP hydrolysis – biochemical, ADP Hunter fluorescence, primary and confirmatory, confirmation (AID 624330); format: functional
T2 sequence (Q9H0H5 whole entry): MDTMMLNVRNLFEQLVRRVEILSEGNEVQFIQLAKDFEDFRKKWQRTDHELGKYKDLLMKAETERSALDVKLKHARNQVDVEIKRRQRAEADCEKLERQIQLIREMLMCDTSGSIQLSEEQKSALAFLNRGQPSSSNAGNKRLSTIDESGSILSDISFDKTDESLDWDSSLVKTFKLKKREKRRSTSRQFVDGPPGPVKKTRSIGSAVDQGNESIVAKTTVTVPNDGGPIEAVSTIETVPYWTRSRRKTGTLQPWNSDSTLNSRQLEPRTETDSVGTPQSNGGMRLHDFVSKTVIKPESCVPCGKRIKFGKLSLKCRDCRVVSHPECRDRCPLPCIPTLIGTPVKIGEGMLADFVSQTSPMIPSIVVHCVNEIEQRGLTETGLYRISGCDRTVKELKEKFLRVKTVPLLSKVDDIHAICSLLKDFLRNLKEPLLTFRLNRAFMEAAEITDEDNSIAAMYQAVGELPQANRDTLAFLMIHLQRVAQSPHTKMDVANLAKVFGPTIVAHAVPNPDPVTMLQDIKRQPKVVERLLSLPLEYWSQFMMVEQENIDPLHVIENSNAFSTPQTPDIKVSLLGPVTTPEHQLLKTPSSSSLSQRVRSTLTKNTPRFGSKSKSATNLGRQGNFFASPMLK

[20] = viability loss in THP-1 monocytes – THP-1 cells, cytotoxicity control for Vif-APOBEC3G degradation inhibitor project, dose response (AID 1117359); format: functional; conditions: THP-1
[21] = molecular target: T1, Heat shock protein HSP 90-alpha; format: functional, organism-based
CHO = CHO cell viability loss, potency – luminescence, cytotoxicity control for TLR9-MyD88 binding inhibitor project, dose response (AID 588339); format: functional, cell-based, hamster; conditions: Cricetulus griseus;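 also: CHO cells stably coexpressing TLR9 and MyD88 fusions from primary screen; compound exposure lasted 48 hours before viability readout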
Vero [22] = experiment: viability of Vero cells under compound – cytotoxicity control for flavivirus capping enzyme inhibitors (AID 588742); format: functional; conditions: Chlorocebus sabaeus
[23] = PAX5 cellular inhibition readout – cell-based, plate reader, dry powder samples, selectivity assay for PAX8 inhibitor project, dose response (AID 743047); format: functional;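 also: HEK293 cells carrying a Pax5 driven CD19 promoter luciferase reporter; potency of inhibitors that lower reporter luminescence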
[24] = IGROV1 cell killing – plate reader, dry powder samples, PAX8 inhibitor project, dose response (AID 743043); format: functional, cell-based; conditions: IGROV-1

Paired box protein Pax-8, sequence (Q06710 whole entry): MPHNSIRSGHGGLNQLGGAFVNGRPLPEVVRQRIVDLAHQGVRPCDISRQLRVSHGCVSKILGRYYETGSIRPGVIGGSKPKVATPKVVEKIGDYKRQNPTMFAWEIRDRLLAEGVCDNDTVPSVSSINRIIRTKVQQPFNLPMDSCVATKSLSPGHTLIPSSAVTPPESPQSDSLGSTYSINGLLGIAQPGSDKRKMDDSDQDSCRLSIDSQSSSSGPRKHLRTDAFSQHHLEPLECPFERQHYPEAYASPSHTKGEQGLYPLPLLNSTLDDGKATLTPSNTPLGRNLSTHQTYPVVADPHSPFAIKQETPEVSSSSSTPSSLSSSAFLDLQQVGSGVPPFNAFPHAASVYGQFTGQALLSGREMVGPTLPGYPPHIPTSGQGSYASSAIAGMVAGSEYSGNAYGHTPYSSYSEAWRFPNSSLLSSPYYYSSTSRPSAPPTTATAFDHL
Kallikrein-7, sequence (P49862 whole entry): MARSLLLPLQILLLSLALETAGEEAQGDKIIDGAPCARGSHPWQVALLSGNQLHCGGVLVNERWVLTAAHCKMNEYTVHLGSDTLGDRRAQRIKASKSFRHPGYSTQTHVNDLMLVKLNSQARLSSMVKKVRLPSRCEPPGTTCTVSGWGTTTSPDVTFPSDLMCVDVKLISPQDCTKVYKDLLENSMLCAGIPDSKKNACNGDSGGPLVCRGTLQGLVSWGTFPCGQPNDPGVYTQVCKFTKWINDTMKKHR
1-phosphatidylinositol 4,5-bisphosphate phosphodiesterase beta-3, sequence (Q01970 whole entry): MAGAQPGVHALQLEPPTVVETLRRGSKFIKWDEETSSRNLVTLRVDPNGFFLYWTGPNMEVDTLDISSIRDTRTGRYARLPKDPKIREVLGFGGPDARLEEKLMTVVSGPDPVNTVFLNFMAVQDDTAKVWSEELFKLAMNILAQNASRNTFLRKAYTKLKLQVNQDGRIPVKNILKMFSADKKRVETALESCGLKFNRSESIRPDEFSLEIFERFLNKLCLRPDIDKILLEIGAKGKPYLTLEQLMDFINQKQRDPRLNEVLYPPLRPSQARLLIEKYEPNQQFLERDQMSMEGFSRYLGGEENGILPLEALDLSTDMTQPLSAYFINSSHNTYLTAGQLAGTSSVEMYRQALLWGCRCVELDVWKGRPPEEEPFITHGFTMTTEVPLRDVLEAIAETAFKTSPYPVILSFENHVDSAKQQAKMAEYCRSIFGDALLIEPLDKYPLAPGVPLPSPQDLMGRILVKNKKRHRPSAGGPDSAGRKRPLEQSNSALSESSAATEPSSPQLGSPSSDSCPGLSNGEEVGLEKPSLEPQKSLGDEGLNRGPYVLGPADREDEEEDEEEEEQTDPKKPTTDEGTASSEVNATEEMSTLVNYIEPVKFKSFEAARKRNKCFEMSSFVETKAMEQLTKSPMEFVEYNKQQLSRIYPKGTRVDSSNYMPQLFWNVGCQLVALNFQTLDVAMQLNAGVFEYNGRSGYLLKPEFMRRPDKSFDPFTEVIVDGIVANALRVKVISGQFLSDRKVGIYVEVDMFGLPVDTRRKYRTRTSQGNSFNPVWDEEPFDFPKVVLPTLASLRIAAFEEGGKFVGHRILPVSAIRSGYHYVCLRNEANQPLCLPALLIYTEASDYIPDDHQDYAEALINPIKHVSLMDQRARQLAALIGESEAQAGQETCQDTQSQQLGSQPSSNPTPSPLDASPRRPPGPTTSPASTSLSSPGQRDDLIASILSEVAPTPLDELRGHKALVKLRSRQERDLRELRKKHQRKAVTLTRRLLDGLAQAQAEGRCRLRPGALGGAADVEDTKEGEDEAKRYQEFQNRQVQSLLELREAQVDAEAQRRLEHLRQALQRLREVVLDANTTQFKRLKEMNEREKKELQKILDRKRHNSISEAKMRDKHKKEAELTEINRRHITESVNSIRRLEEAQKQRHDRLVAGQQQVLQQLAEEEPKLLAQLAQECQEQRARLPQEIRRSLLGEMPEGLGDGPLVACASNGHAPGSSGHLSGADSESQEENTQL
Genome polyprotein, sequence (P29990 2492-3391 limits assumed): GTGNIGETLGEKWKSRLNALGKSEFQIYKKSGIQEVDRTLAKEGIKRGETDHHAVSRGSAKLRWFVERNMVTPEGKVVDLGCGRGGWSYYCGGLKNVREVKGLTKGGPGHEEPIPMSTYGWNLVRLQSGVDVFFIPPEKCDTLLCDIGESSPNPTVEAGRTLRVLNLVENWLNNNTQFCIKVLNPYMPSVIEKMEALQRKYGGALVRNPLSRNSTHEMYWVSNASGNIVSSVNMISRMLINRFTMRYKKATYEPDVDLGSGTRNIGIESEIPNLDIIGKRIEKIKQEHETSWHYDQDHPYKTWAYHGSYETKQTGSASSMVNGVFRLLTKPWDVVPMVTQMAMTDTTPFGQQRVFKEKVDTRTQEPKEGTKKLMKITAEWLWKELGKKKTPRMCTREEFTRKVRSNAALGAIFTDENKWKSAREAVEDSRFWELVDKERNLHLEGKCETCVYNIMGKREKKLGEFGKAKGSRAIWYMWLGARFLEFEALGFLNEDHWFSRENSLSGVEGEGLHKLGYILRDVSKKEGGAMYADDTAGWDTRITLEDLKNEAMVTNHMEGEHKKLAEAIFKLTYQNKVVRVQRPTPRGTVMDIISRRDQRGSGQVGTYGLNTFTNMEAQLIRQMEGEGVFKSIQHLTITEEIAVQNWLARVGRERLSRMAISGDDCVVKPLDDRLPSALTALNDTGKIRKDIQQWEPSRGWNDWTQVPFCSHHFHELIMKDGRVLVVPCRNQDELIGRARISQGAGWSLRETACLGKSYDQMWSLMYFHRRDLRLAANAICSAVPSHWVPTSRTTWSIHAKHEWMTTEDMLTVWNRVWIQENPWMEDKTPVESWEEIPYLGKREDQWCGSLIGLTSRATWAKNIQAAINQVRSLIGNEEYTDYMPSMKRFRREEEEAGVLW
1-phosphatidylinositol 4,5-bisphosphate phosphodiesterase gamma-1, sequence (P19174 whole entry): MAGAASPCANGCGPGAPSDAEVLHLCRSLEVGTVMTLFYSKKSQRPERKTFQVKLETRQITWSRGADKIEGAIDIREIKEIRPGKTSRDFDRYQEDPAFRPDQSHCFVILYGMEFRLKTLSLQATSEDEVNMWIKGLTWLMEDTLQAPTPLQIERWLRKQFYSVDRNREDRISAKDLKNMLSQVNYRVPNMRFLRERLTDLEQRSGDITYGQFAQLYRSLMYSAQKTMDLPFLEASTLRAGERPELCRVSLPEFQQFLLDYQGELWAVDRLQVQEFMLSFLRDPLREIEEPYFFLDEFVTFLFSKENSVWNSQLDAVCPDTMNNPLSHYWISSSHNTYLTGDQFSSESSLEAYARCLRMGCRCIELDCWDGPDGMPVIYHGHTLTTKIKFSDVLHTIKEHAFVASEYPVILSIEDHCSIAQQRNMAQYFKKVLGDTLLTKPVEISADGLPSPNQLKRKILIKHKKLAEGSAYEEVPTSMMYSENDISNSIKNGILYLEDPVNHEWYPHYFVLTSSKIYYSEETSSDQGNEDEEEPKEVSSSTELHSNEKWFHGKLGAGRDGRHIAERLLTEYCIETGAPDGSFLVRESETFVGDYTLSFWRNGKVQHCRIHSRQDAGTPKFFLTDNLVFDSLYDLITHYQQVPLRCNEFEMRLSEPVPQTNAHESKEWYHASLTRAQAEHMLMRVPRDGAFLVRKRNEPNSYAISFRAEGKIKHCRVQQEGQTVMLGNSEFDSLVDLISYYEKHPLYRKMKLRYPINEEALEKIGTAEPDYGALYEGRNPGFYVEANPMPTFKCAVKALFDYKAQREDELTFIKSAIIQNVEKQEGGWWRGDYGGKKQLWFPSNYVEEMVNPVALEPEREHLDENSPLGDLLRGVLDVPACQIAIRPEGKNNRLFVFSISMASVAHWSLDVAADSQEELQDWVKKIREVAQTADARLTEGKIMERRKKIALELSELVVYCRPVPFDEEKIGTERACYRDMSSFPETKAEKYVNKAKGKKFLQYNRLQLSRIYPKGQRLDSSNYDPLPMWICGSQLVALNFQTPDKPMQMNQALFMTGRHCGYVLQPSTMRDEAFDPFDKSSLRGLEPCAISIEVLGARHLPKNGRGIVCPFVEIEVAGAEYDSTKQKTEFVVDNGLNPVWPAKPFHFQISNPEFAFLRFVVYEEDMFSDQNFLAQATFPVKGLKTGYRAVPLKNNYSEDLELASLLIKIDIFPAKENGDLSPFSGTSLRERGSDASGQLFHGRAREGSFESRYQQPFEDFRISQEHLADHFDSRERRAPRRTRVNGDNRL
Beta Lactamase, sequence (Q932Y6 whole entry): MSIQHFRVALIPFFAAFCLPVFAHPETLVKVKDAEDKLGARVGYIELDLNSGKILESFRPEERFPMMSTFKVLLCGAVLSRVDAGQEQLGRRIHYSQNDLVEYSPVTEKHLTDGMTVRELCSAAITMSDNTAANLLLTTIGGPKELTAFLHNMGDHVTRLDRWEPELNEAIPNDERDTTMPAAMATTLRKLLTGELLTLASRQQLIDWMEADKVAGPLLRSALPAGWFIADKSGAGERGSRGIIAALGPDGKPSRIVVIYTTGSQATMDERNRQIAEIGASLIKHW
Glucose-6-phosphate 1-dehydrogenase, sequence (P11413 whole entry): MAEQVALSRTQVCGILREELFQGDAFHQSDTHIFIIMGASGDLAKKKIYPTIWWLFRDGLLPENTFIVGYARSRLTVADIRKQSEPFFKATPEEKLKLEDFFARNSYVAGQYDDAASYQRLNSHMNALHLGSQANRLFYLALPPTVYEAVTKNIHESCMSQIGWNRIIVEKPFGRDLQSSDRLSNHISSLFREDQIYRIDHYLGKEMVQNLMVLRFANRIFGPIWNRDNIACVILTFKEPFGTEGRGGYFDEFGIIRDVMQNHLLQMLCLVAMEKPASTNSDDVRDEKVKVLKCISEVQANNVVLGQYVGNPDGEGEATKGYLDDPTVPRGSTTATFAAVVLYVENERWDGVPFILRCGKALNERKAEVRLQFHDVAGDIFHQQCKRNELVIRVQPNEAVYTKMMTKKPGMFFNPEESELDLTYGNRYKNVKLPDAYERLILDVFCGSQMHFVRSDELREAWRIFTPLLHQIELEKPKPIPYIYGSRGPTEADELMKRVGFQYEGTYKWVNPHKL

SMILES: N=c1sccn1CC(=O)Nc1ccc2c(c1)CCC2
- CC50 [1]: > 40 µM (active)

SMILES: CC(C)CCN(CCC(C)C)CC(O)Cn1c2ccccc2c(=O)c2ccccc21 (stereo not drawn)
- AC50 (cells): > 52 µM (inactive)

SMILES: CC1(C)CC(=O)c2sc(NC(=O)CCS(=O)(=O)c3ccccc3)nc2C1
- AC50 [2]: 86.7 µM (active)
- AC50 [3]: 22.9 µM (active)
- AC50 [4]: 69.9 µM (active)
- AC50 (Paired box protein Pax-8): 3.16 µM (active)
- AC50 [5]: 11.9 µM (active)

SMILES: CC(C)N1C(=O)C2(OCCCO2)c2cc(Br)ccc21
- AC50 (HEK293): 13 µM (active)
- AC50 [6]: 13 µM (active)

SMILES: Cc1sc(-c2ccncc2)nc1OC(=O)c1ccccc1
- IC50 [7]: > 100 µM (active)
- IC50 (Saccharomyces cerevisiae): 56.9 µM (active)
- IC50 [8]: 23.1 µM (active)

SMILES: O=S(=O)(c1ccccc1)c1cnn(-c2ccccc2)c1-c1ccc(Cl)cc1
- IC50 [9]: > 122 µM (inactive)
- IC50 [10]: > 122 µM (inactive)

SMILES: Cc1ccc(C(=O)Nc2ccc(NC(=O)c3ccc(C)o3)cc2)o1
- EC50 [11]: > 7.72 µM (active)
- EC50 (Kallikrein-7): 12.7 µM (inactive)

SMILES: Cc1cc(NC(=O)c2coc(=O)c(Br)c2)ccc1C(C)C
- IC50 [12]: 8.9 µM (active)
- CC50 (Vero [13]): > 25 µM (active)
- IC50 [14]: 18.8 µM (inactive)
- IC50 [15]: 685 nM (active)

SMILES: CCN(CC)c1ccc(C(=C2C=CC(=[N+](CC)CC)C=C2)c2ccccc2)cc1
- IC50 [16]: > 80 µM (inactive)
- CC50 [17]: 823 nM (active)
- IC50 (Nonstructural protein 1): 10.4 µM (active)
- IC50 (Beta Lactamase): 4.75 µM (active)
- IC50 [18]: 25.3 µM (active)
- IC50 (Genome polyprotein): 24.9 µM (active)
- IC50 [19]: 9.8 µM (active)
- CC50 [20]: 100 nM (active)
- AC50 [21]: 754 nM (active)
- IC50 (CHO): 181 nM (active)
- CC50 (Vero [22]): 270 nM (active)

SMILES: N#C[C@@H]1[C@@H](c2ccc(-c3cccc(F)c3)cc2)[C@H](CO)N1C(=O)NC1CCCC1
- AC50 [2]: > 70 µM (inactive)
- AC50 [3]: 65.3 µM (active)
- AC50 (Paired box protein Pax-8): 22.2 µM (active)
- AC50 [23]: 55.5 µM (active)
- AC50 [5]: 39.6 µM (active)

SMILES: O=C(C[C@@H]1CC[C@@H]2[C@H](COC[C@@H](O)CN2C(=O)Nc2ccc(C(F)(F)F)cc2)O1)NC1Cc2ccccc2C1
- AC50 (Paired box protein Pax-8): 5.62 µM (active)
- AC50 [24]: 56.8 µM (active)
